Drawing on patent US7094781B2, “Sulfamides and their use as endothelin receptor antagonists” (Actelion Pharmaceuticals Ltd., priority 2000, dated 2006), this text covers IC50 for 31 compounds.

Test [1] addresses T1, human recombinant ETB receptor (Homo sapiens, UniProt P24530).
T1 construct: expressed in transfected cells; host or cells: CHO cells (microsomal membranes)
T1 sequence (P24530 27-442): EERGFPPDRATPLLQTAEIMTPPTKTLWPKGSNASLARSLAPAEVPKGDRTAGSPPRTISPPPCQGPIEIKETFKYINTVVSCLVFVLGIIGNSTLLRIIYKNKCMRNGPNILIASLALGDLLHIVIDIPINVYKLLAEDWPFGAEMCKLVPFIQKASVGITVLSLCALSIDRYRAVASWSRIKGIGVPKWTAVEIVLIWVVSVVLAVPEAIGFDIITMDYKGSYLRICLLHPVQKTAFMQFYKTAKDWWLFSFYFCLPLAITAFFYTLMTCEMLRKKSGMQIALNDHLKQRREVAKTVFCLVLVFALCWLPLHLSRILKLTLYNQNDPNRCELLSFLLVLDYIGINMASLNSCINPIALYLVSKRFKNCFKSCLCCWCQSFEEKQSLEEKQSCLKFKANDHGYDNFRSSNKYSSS
The test is described as follows: Inhibition of [125I]ET-1 binding to membranes from CHO cells carrying human ETB receptors.

In test [2] the target is T2, human recombinant ETA receptor (Homo sapiens, UniProt P25101).
T2 construct: expressed in transfected cells; host or cells: CHO cells (microsomal membranes)
T2 sequence (P25101 21-427): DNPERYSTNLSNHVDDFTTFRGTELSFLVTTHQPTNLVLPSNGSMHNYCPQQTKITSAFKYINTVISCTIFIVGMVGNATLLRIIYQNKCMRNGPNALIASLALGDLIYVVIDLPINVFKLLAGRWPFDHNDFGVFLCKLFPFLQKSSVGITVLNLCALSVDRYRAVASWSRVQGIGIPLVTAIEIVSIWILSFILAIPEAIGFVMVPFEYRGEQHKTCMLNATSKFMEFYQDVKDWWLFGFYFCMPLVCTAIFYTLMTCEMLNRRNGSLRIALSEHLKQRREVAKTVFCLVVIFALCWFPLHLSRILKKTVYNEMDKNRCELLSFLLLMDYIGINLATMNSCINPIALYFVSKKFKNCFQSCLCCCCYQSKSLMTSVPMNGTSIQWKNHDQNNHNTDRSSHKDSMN
The test is described as follows: Inhibition of [125I]ET-1 binding to membranes from CHO cells carrying human ETA receptors.

By IC50 is commonly meant the point on the concentration scale where inhibition reaches its midpoint. In the case of `COc1ccccc1Oc1c(NS(=O)(=O)Nc2ccc(C(C)C)cc2)nc(-c2ccncc2)nc1OC` [Example 1, 4-i-propyl-phenyl sulfamic acid-[6-methoxy-5-(o-methoxyphenoxy)-2-(4-pyridyl)-pyrimidin-4-yl]-amide], the IC50 in test [1] amounted to 8430 nM; in test [2], 721 nM.

Take `C=CCOc1nc(-c2ccncc2)nc(NS(=O)(=O)Nc2ccc(C(C)C)cc2)c1Oc1ccccc1OC` [Example 2, 4-i-propyl-phenyl sulfamic acid-[6-allyloxy-5-(o-methoxyphenoxy)-2-(4-pyridyl)-pyrimidin-4-yl]-amide]: the 50% inhibitory concentration (IC50) in test [1] came out at 8740 nM; in test [2] it was 2190 nM.

As to `COc1ccccc1Oc1c(NS(=O)(=O)Nc2ccc(C(C)C)cc2)nc(-c2ccncc2)nc1OCCO` [Example 3, 4-i-propyl-phenyl sulfamic acid-[6-(2-hydroxy-ethoxy)-5-(o-methoxyphenoxy)-2-(4-pyridyl)-pyrimidin-4-yl]-amide], the concentration for half-maximal inhibition (IC50) in test [1] stood at 744 nM; in test [2] it was 1380 nM.

`COc1ccccc1Oc1c(NS(=O)(=O)Nc2ccc(C(C)C)cc2)nc(-c2ccncc2)nc1OCCOc1ncccn1` [Example 4, 4-i-propyl-phenyl sulfamic acid-[6-[2-(pyrimidin-2-yloxy)-ethoxy]-5-(o-methoxyphenoxy)-2-(4-pyridyl)-pyrimidin-4-yl]-amide]: the half-maximal inhibitory concentration (IC50) in test [1] came out at 680 nM; in test [2] it was 96 nM.

For the compound `COc1ccccc1Oc1c(NS(=O)(=O)Nc2ccc(C(C)C)cc2)nc(-c2ccncc2)nc1OCCOc1ccc(C(F)(F)F)cn1` [Example 6, 4-i-propyl-phenyl sulfamic acid-[6-[2-(5-trifluoromethyl-pyridin-2-yloxy)-ethoxy]-5-(o-methoxy-phenoxy)-2-(4-pyridyl)-pyrimidin-4-yl]-amide], the figures for the IC50 in test [1] and in test [2] were 7240 nM and 286 nM, respectively.

Turning to `CCNS(=O)(=O)Nc1nc(-c2ccncc2)nc(OC)c1Oc1ccccc1OC` [Example 7, ethyl sulfamic acid-[6-methoxy-5-(o-methoxy-phenoxy)-2-(4-pyridyl)-pyrimidin-4-yl]-amide], the results for the IC50 in test [1] and in test [2] were 9470 nM and 1240 nM, respectively.

Consider `COc1ccccc1Oc1c(NS(=O)(=O)Nc2ccc(C)cn2)nc(-c2ccncc2)nc1OC` [Example 8, 5-methyl-pyridine-2-sulfamic acid-[6-methoxy-5-(o-methoxy-phenoxy)-2-(4-pyridyl)-4-pyrimidinyl]-amide], for which the IC50 in test [1] is more than 10000 nM; in test [2], 1160 nM.

Take `COc1ccccc1Oc1c(NS(=O)(=O)Nc2ccccn2)nc(-c2ccncc2)nc1OC` [Example 9, pyridine-2-sulfamic acid-[6-methoxy-5-(o-methoxyphenoxy)-2-(4-pyridyl)-4-pyrimidinyl]-amide]: the IC50 in test [1] was more than 10000 nM; in test [2] it was 3630 nM.

Regarding `COc1ccccc1Oc1c(NS(=O)(=O)Nc2ccc(C(C)(C)C)cc2)nc(-c2ccncc2)nc1OCCO` [Example 10, 4-t-butyl-phenyl sulfamic acid-[6-(2-hydroxy-ethoxy)-5-(o-methoxy-phenoxy)-2-(4-pyridyl)-4-pyrimidinyl]-amide], the figures for the 50% inhibitory concentration (IC50) in test [1] and in test [2] were 193 nM and 2870 nM, respectively.

As for `Cc1ccc(NS(=O)(=O)Nc2ncnc(OCCOc3ncc(Br)cn3)c2-c2ccc(C)cc2)cc1` [Example 12, 4-methyl-phenyl sulfamic acid-[6-[2-(5-bromo-pyrimidin-2-yloxy)-ethoxy]-5-(p-tolyl)-4-pyrimidinyl]-amide], the concentration for half-maximal inhibition (IC50) in test [1] is more than 10000 nM; in test [2] it was 59 nM.

Regarding `COc1cnc(OCCOc2ncnc(NS(=O)(=O)NCc3ccccc3)c2-c2ccc(Cl)cc2)nc1` [Example 15], the half-inhibitory concentration (IC50) in test [1] is 2160 nM; in test [2] it was 18.5 nM.

With `Cc1cnc(OCCOc2ncnc(NS(=O)(=O)NCc3ccccc3)c2-c2ccc(Cl)cc2)nc1` [Example 16], the concentration for half-maximal inhibition (IC50) in test [1] is 8450 nM; in test [2], 45 nM.

On to `COc1cnc(OCCOc2ncnc(NS(=O)(=O)NCc3cccs3)c2-c2ccc(Cl)cc2)nc1` [Example 21], for which the figures for the half-inhibitory concentration (IC50) in test [1] and in test [2] were 1000 nM and 7 nM, respectively.

On to `O=S(=O)(NCc1cccs1)Nc1ncnc(OCCOc2ccc(C(F)(F)F)cn2)c1-c1ccc(Cl)cc1` [Example 22], for which the IC50 in test [1] turned out to be 434 nM; in test [2], 12 nM.

As for `COc1cnc(OCCOc2ncnc(NS(=O)(=O)NCc3ccco3)c2-c2ccc(Cl)cc2)nc1` [Example 23], the IC50 in test [1] amounted to 1590 nM; in test [2] it was 3.6 nM.

On to `O=S(=O)(NCc1ccco1)Nc1ncnc(OCCOc2ncc(Br)cn2)c1-c1ccc(Cl)cc1` [Example 24], for which the IC50 turned out to be 2500 nM in test [1] and 2.2 nM in test [2].

Consider `O=S(=O)(NCc1ccccc1)Nc1nc(-c2ncccn2)nc(OCCOc2ncc(Br)cn2)c1-c1ccccc1` [Example 26], for which the 50% inhibitory concentration (IC50) in test [1] was more than 10000 nM; in test [2], 54 nM.

For the compound `CCc1ccc(-c2c(NS(=O)(=O)NCc3ccccc3)ncnc2OCCOc2ncc(Br)cn2)cc1` [Example 29], in test [2], the IC50 is 13.5 nM.

`CSc1cnc(OCCOc2nc(-c3ccncc3)nc(NS(=O)(=O)NCc3ccccc3)c2-c2ccc(C)cc2)nc1` [Example 33]: the 50% inhibitory concentration (IC50) in test [1] was found to be 609 nM; in test [2] it was 3.7 nM.

As for `Cc1ccc(-c2c(NS(=O)(=O)NCc3ccccc3)nc(-c3ccncc3)nc2OCCOC(=O)Nc2ccccn2)cc1` [Example 34], the IC50 in test [1] was 3270 nM; in test [2], 23 nM.

On to `COc1ccccc1Oc1c(NS(=O)(=O)NCc2ccccc2)nc(-c2ncccn2)nc1OCCOc1ncccn1` [Example 39], for which the results for the IC50 in test [1] and in test [2] were 524 nM and 32.7 nM, respectively.

On to `COc1ccccc1Oc1c(NS(=O)(=O)NCc2ccccc2)nc(-c2cnccn2)nc1OCCOc1ncc(Br)cn1` [Example 71], for which the IC50 in test [2] was determined as 23.6 nM.

In the case of `COc1ccccc1Oc1c(NS(=O)(=O)NCc2ccccc2)nc(-c2ccncc2)nc1OCCOc1ncc(Br)cn1` [Example 73], the half-maximal inhibitory concentration (IC50) in test [2] is 1.9 nM.

As for `COc1ccccc1Oc1c(NS(=O)(=O)NCc2ccccc2)nc(C2CC2)nc1OCCOc1ncc(Br)cn1` [Example 88], the concentration for half-maximal inhibition (IC50) in test [2] is 16 nM.

For `COc1ccccc1Oc1c(NS(=O)(=O)NCc2ccccc2)ncnc1OCCOc1ncc(Br)cn1` [Example 96], the IC50 in test [2] stood at 6.3 nM.

On to `CCNS(=O)(=O)Nc1ncnc(OCCOc2ncc(Br)cn2)c1-c1ccc(Br)cc1` [Example 104], for which the half-inhibitory concentration (IC50) in test [2] was 0.88 nM.

For `CCNS(=O)(=O)Nc1nc(-c2ncccn2)nc(OCCOc2ncc(Br)cn2)c1Oc1ccccc1OC` [Example 184], the 50% inhibitory concentration (IC50) in test [2] came out at 29.5 nM.

In the case of `COc1ccccc1Oc1c(NS(=O)(=O)N(C)Cc2ccccc2)nc(-c2ncccn2)nc1OCCOc1ncc(Br)cn1` [Example 187], the IC50 in test [2] is 9.8 nM.

On to `O=S(=O)(Nc1ncnc(OCCOc2ncc(Br)cn2)c1-c1ccc(Br)cc1)NC1CC1` [Example 196], for which the IC50 in test [2] stood at 4.4 nM.

Take `COc1ccccc1Oc1c(NS(=O)(=O)NCc2ccccc2)nc(N2CCOCC2)nc1OCCOc1ncc(Br)cn1` [Example 206, Benzylsulfamic acid [6-[2-(5-bromo-pyrimidin-2-yloxy)-ethoxy]-5-(2-methoxy-phenoxy)-2-morpholin-4-yl-pyrimidin-4-yl]-amide]: in test [2], the IC50 came to 1.03 nM.

In the case of `COc1ccc(Cl)c(Oc2c(NS(=O)(=O)NCc3ccccc3)ncnc2OCCOc2ncc(Br)cn2)c1` [Example 212, Benzylsulfamic acid [6-[2-(5-bromo-pyrimidin-2-yloxy)-ethoxy]-5-(2-chloro-5-methoxy-phenoxy)-pyrimidin-4-yl]-amide], the concentration for half-maximal inhibition (IC50) in test [2] came to 3.1 nM.
